Measurements reported in PubChem BioAssay AID1963829 (Molecular Pharmacology Branch, DTP, NCI, 2024).
Values joined by “and” are separate entries in the source; they are usually repeats but may differ in a detail not shown here. Equal entries are not always repeated.

System: 935938-334-R-J1-PDC complex spheroid viability
Test: Anticancer human tumor 935938-334-R-J1-PDC patient-derived small intestine adenocarcinoma cell line growth inhibition [POLQ]
Conditions: for viability, T/C: stronger effect = lower value
Experimental: Multicellular complex tumor spheroid response to Polymerase (POL) inhibitors (novobiocin, ART-558, RP6685) in combination with a variety of drugs and investigational agents in selected tumor cell lines
The POL inhibitors (novobiocin, ART-558, and RP6685) were evaluated both individually and in combination with standard of care and investigational anticancer small molecules within a complex spheroid model of solid tumors. . Complex spheroids include a stromal component modeled by human endothelial cells (HUVEC) and fibroblasts modeled by human mesenchymal stem cells (MSCs). The concentration ranges selected for each drug and investigational agent were based upon clinically achievable concentrations if the clinical Cmax of the agent was known.
Compounds. The drugs and investigational agents: novobiocin (NSC847541), ART-558 (NSC835418), RP-6685 (NSC848927), peposertib (NSC802822), ceralasertib (NSC780249), elimusertib (NSC800525), camonsertib (NSC841442), AZD-1390 (NSC803789), olaparib (NSC753686), talazoparib (NSC767125), rucaparib (NSC756644), sotorasib (NSC818433), MRTX-1133 (NSC836407), SN-38 (NSC673596), topotecan (NSC609699), epotoside (NSC141540), doxorubicin (NSC123127), gemcitabine (NSC613327), 5-fluorouracil (NSC19893), paclitaxel (NSC125973), vemurafenib (NSC761431), MSA-2 (NSC828583), SN-011 (NSC837082), adavosertib (NSC754352), prexasertib (NSC758257), carboplatin (NSC241240) and oxaliplatin (NSC266046), were obtained from the National Cancer Institute (NCI) Developmental Therapeutics Program Chemical Repository (21). The FDA-approved anticancer drug set is available from the Developmental Therapeutics Program at https://dtp.cancer.gov/organization/dscb/obtaining/. […] The stock solutions were prepared in dimethyl sulfoxide (DMSO, Sigma-Aldrich, St. Louis, MO, cat. D2650), except for the platinum compounds which were prepared in saline (Quality Biological, Gaithersburg, MD, cat. 114-055-101), at 800-fold the tested concentration and stored at -70 degrees C prior to their use. All drugs and investigational agents were tested over a range starting from a high concentration at or near the clinical Cmax and decreasing in half-log increments. If the clinical Cmax for an agent had not been determined, the highest concentration tested was 10 microM, except for SN-38, which was tested at a high concentration of 1 microM.
Cell Culture. All cells were maintained in an incubator at 37 degrees C and 5% CO2 with 95% humidity. The PDC lines were cultured according to standard operating procedures established by the NCI PDMR (https://pdmr.cancer.gov). Table 3 of the manuscript, lists the cell lines along with the number of the three cell types plated to form the mct-spheroids and media for tumor cell growth. After thawing, all PDC lines, except 997537-175-T-J1-PDC and 415267-285-R-J2-PDC, were cultured in Matrigel-coated flasks prepared with a working solution of 1X Ham's F-12 nutrient mix, without supplementation (Thermo Fisher Scientific, cat. 11765054), 100 U/mL penicillin-streptomycin (Thermo Fisher Scientific, cat. 15140122), and 2.5% Matrigel (Corning Inc., Corning, NY, cat. 354248) for the first three passages. The two PDC lines 997537-175-T-J1-PDC and 415267-285-R-J2-PDC were cultured on uncoated flasks. The 857933-349-R-J2-PDC line was cultured in 6C/Colon 1B media containing advanced DMEM/F-12 (Thermo Fisher Scientific, cat. 12634028), 10 mM HEPES (Thermo Fisher Scientific, cat. 15630080), 1X GlutaMAX supplement (Thermo Fisher Scientific, cat. 35050061), 0.1 mg/mL primocin (InvivoGen, San Diego, CA, cat. ant-pm-2), 10% defined fetal bovine serum, heat inactivated (HyClone Laboratories Inc., Logan, UT, cat. SH30070.03HI), 50% L-WRN conditioned media (ATCC, cat. CRL-3276), 1.25 mM N-Acetyl-L-cysteine (Sigma-Aldrich, cat. A9165), 10 mM nicotinamide (Sigma-Aldrich, cat. N0636), 1X B-27 supplement (Thermo Fisher Scientific, cat. 17504044), 1X N-2 supplement (Thermo Fisher Scientific, cat. […]
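Note: spheroids exposed to drugs for seven days before viability read.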
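Throughout, for viability, T/C: 100% = DMSO vehicle control wells.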

CC(=O)O[C@H]1C(=O)[C@@]2(C)[C@H]([C@H](OC(=O)c3ccccc3)[C@]3(O)C[C@H](OC(=O)[C@H](O)[C@@H](NC(=O)c4ccccc4)c4ccccc4)C(C)=C1C3(C)C)[C@]1(OC(C)=O)CO[C@@H]1C[C@@H]2O
viability, T/C (compound 0.00949 µM): 35.5% and 53.2% and 37.8% | viability, T/C (compound 0.03 µM): 18.7% and 20.8% and 19.2% | viability, T/C (compound 0.0949 µM): 15.8% and 15.7% and 16% | viability, T/C (compound 0.3 µM): 12.4% and 16.4% and 17% | viability, T/C (compound 0.949 µM): 14.9% and 15.7% and 13.9% | viability, T/C (compound 3 µM): 17.9% and 19.1% and 19.5% | IC50 (curve of compound): < 0.00949 µM and 0.0106 µM

Cc1cccc(N(C)C(=O)C2C(O)CCN2c2nc(C)cc(C(F)(F)F)c2C#N)c1 (stereo not given)
IC50 (compound alone, run of 11/27/2023): > 10 µM | IC50 (compound alone, run of 12/05/2023): > 10 µM

CCc1cc2c(N3CCc4c(cc(Cn5ccnc5)cc4-c4cn(C)nc4C(F)(F)F)C3=O)cc(C)nc2c(OC)n1
viability, T/C (compound 0.0316 µM): 63.3% and 77.3% and 86.5% | viability, T/C (compound 0.1 µM): 98.4% and 69.4% and 64.3% | viability, T/C (compound 0.316 µM): 72.6% and 62.2% and 67.1% | viability, T/C (compound 1 µM): 65.5% and 59.4% and 67.5% | viability, T/C (compound 3.16 µM): 65.5% and 71.2% and 67.9% | viability, T/C (compound 10 µM): 57.6% and 57% and 58.1% | IC50 (curve of compound): > 10 µM

O=C(c1cc(Cc2n[nH]c(=O)c3ccccc23)ccc1F)N1CCN(C(=O)C2CC2)CC1 + Cc1cccc(N(C)C(=O)C2C(O)CCN2c2nc(C)cc(C(F)(F)F)c2C#N)c1
IC50 (curve of first compound, second compound 0.0316 µM): > 10 µM | IC50 (curve of first compound, second compound 0.1 µM): > 10 µM | IC50 (curve of first compound, second compound 0.316 µM): > 10 µM | IC50 (curve of first compound, second compound 1 µM): > 10 µM | IC50 (curve of first compound, second compound 3.16 µM): > 10 µM | IC50 (curve of first compound, second compound 10 µM): 9.21 µM | viability, T/C (second compound 0.0316 µM, first compound 0.0316 µM): 72.1% | viability, T/C (second compound 0.0316 µM, first compound 0.1 µM): 93.2% | viability, T/C (second compound 0.0316 µM, first compound 0.316 µM): 59.6% | viability, T/C (second compound 0.0316 µM, first compound 1 µM): 96.7% | viability, T/C (second compound 0.0316 µM, first compound 3.16 µM): 74.1% | viability, T/C (second compound 0.0316 µM, first compound 10 µM): 65.8% | viability, T/C (second compound 0.1 µM, first compound 0.0316 µM): 76.3% | viability, T/C (second compound 0.1 µM, first compound 0.1 µM): 81% | viability, T/C (second compound 0.1 µM, first compound 0.316 µM): 73.3% | viability, T/C (second compound 0.1 µM, first compound 1 µM): 97.3% | viability, T/C (second compound 0.1 µM, first compound 3.16 µM): 71.1% | viability, T/C (second compound 0.1 µM, first compound 10 µM): 63.7% | viability, T/C (second compound 0.316 µM, first compound 0.0316 µM): 92.8% | viability, T/C (second compound 0.316 µM, first compound 0.1 µM): 108% | viability, T/C (second compound 0.316 µM, first compound 0.316 µM): 89.8% | viability, T/C (second compound 0.316 µM, first compound 1 µM): 89.6% | viability, T/C (second compound 0.316 µM, first compound 3.16 µM): 69.4% | viability, T/C (second compound 0.316 µM, first compound 10 µM): 58.1% | viability, T/C (second compound 1 µM, first compound 0.0316 µM): 89.7% | viability, T/C (second compound 1 µM, first compound 0.1 µM): 86.8% | viability, T/C (second compound 1 µM, first compound 0.316 µM): 135% | viability, T/C (second compound 1 µM, first compound 1 µM): 85.1% | viability, T/C (second compound 1 µM, first compound 3.16 µM): 78.1% | viability, T/C (second compound 1 µM, first compound 10 µM): 69.9% | viability, T/C (second compound 3.16 µM, first compound 0.0316 µM): 88.5% | viability, T/C (second compound 3.16 µM, first compound 0.1 µM): 99.2% | viability, T/C (second compound 3.16 µM, first compound 0.316 µM): 97.5% | viability, T/C (second compound 3.16 µM, first compound 1 µM): 85.2% | viability, T/C (second compound 3.16 µM, first compound 3.16 µM): 68.8% | viability, T/C (second compound 3.16 µM, first compound 10 µM): 54.5% | viability, T/C (second compound 10 µM, first compound 0.0316 µM): 95.3% | viability, T/C (second compound 10 µM, first compound 0.1 µM): 78.7% | viability, T/C (second compound 10 µM, first compound 0.316 µM): 87.2% | viability, T/C (second compound 10 µM, first compound 1 µM): 88.2% | viability, T/C (second compound 10 µM, first compound 3.16 µM): 82.3% | viability, T/C (second compound 10 µM, first compound 10 µM): 47.5%

CCCS(=O)(=O)Nc1ccc(F)c(C(=O)c2c[nH]c3ncc(-c4ccc(Cl)cc4)cc23)c1F
viability, T/C (compound 0.0316 µM): 113% and 92.8% and 116% | viability, T/C (compound 0.1 µM): 119% and 111% and 89.6% | viability, T/C (compound 0.316 µM): 115% and 103% and 106% | viability, T/C (compound 1 µM): 108% and 102% and 121% | viability, T/C (compound 3.16 µM): 96.3% and 131% and 129% | viability, T/C (compound 10 µM): 46.3% and 53.5% and 37.2% | IC50 (curve of compound): 9.27 µM and > 10 µM and 8.23 µM
